The subject of data set [1] is HT-29. The data set can be described thus: Antiproliferative activity against human HT-29 cells harboring B-RAF V600E mutant after 72 hrs by SRB assay. It is filed as functional, cell-based. As to conditions: HT-29, 72 h. For orientation: Sulforhodamine B stains cellular protein and so reports cell mass.
In data set [2] the target is Mitogen-activated protein kinase; ERK1/ERK2 (Homo sapiens) (UniProt P27361+P28482). The data set can be described thus: Inhibition of ERK1/ERK2 in human HT-29 cells assessed as reduction in p90RSK phosphorylation after 2 hrs by Western blot analysis. In kind it is cell-based. On the technique in general: Immunoblotting shows a protein as a band on a membrane.
Data set [3] in a line: Apparent permeability in human Caco2 cells assessed as Fabs after 95 mins by LC-MS/MS analysis. It is filed as ADME, cell-based. The following applies: caco-2, 95 min.
The target of data set [4] is Dual specificity mitogen-activated protein kinase kinase; MEK1/2 (Homo sapiens) (UniProt P36507+Q02750). Description: Inhibition of ERK phosphorylation in human HT-29 cells after 2 hrs by Western blot analysis. It is filed as cell-based.
The target of data set [5] is Mitogen-activated protein kinase 1 (Homo sapiens, UniProt P28482). Description: Inhibition of human recombinant GST-tagged ERK2 expressed in Escherichia coli using ser/thr 3 Peptide as substrate preincubated for 1 hr measured after 1 hr by Z-LYTE assay.
Data set [6] can be described thus: AUC (0 to 24 hrs) in rat at 10 mg/kg, po. Details: time < 24 hr, dose 10 mg/kg, route oral. It is filed as ADME, organism-based. The following applies: in vivo.

The structures appear in SMILES notation. Activity calls are given as the source filed them. The calls are words filed in the database; no cut-off is given here.

As usually defined, the IC50 is the concentration that gives 50% inhibition. What is called AUC(0-t) is the area under the concentration-time curve up to a stated or last time point. Read a high AUC(0-t) as more exposure.

Sequence of Dual specificity mitogen-activated protein kinase kinase; MEK1/2 (Homo sapiens) (P36507 whole entry, looked up): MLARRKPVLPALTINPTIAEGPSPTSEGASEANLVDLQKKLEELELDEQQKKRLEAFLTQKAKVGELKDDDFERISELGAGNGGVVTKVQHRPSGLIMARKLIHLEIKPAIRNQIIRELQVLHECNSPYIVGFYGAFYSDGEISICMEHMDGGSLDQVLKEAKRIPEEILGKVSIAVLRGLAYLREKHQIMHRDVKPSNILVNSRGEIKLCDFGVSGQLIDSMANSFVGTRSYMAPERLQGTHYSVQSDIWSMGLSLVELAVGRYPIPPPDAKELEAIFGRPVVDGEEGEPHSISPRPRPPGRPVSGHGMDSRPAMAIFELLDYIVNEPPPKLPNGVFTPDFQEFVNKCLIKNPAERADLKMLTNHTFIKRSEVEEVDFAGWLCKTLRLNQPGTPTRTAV
Sequence of Dual specificity mitogen-activated protein kinase kinase; MEK1/2 (Homo sapiens) (Q02750 whole entry, looked up): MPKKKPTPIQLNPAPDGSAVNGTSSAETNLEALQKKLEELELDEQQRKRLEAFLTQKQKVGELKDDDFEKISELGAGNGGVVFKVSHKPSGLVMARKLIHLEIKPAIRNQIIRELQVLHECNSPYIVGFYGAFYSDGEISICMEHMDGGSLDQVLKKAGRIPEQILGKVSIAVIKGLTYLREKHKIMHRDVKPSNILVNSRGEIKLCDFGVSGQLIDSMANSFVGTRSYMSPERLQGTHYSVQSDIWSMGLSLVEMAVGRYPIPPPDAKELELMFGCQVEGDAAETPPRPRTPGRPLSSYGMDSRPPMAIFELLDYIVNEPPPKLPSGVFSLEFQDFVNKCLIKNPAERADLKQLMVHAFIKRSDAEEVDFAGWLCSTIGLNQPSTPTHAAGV
Sequence of Mitogen-activated protein kinase; ERK1/ERK2 (Homo sapiens) (P27361 whole entry, looked up): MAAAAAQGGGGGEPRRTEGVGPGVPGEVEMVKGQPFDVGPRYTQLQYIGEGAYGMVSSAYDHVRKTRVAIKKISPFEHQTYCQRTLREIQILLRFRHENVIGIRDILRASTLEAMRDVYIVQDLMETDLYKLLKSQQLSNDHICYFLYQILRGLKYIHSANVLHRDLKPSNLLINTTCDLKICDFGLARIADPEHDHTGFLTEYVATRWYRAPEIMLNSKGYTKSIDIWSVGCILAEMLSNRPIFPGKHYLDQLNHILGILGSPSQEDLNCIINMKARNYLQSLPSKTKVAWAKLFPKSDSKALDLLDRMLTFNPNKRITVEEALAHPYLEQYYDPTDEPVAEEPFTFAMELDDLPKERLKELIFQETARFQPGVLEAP
Sequence of Mitogen-activated protein kinase; ERK1/ERK2 (Homo sapiens) (P28482 whole entry, looked up): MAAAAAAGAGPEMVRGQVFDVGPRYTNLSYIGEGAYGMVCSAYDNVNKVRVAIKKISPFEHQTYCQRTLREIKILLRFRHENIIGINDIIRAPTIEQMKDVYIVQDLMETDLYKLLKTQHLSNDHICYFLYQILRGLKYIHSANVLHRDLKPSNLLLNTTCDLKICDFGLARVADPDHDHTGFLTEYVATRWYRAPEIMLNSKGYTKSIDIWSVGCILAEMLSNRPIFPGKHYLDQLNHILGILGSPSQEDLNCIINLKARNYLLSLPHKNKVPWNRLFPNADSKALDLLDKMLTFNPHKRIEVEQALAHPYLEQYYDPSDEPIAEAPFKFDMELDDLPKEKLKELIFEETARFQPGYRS
Sequence of Mitogen-activated protein kinase 1 (P28482 whole entry): as the sequence (P28482 whole entry, looked up) above

Consider `C[C@@H](NC(=O)c1ccc2[nH]nc(-c3ccncc3)c2c1)c1cccc(Cl)c1`, for which the results for the IC50 in data set [1] and in data set [5] were 900 nM and 25.8 nM, respectively. The inhibition result in data set [2] is “Dose-dependent effect”. In data set [3], the Fabs was determined as 100%. Moreover, the inhibition result in data set [4] was “inactive”. Besides, the area under the curve AUC(0-t) at 24 h in data set [6] came to 56 ng·h/mL.
